The source of these data is publication PMC5218480 (PLoS ONE, 2017).

Molecules are shown by their SMILES.

For the experiment, the system named is MV-4-11 cells. The experiment is described as follows: Gene expression microarray analysis (Affymetrix PrimeView) and GSEA. Set-up: RFU PODN (11730768_x_at) / Fold change /veh PODN (11730768_x_at) / RFU LINC00158 (11744669_a_at) / Fold change /veh LINC00158 (11744669_a_at) / RFU DUSP10 (11751237_a_at) / Fold change /veh DUSP10 (11751237_a_at) / RFU ID3 (11757404_x_at) / Fold change /veh ID3 (11757404_x_at) / RFU PLEKHG5 (11737974_s_at) / Fold change /veh PLEKHG5 (11737974_s_at) / RFU LRRC4B (11730491_at) / Fold change /veh LRRC4B (11730491_at) / RFU GIMAP4 (11747438_a_at) / Fold change /veh GIMAP4 (11747438_a_at) / RFU KRT8 (11758183_x_at) / Fold change /veh KRT8 (11758183_x_at) / RFU CNN1 (11734310_a_at) / Fold change /veh CNN1 (11734310_a_at) / RFU VPS37D (11726825_at) / Fold change /veh VPS37D (11726825_at) / RFU C10orf10 (11716522_x_at) / Fold change /veh C10orf10 (11716522_x_at) / RFU KIR2DL2 /// KIR2DL4 /// KIR2DL5A /// KIR2DL5B /// KIR2DS1 /// KIR2DS2 /// KIR2DS3 /// KIR2DS4 /// KIR3DL3 /// KIR3DL3 /// KIR3DS1 (11738374_at) / Fold change /veh KIR2DL2 /// KIR2DL4 /// KIR2DL5A /// KIR2DL5B /// KIR2DS1 /// KIR2DS2 /// KIR2DS3 /// KIR2DS4 /// KIR3DL3 /// KIR3DL3 /// KIR3DS1 (11738374_at) / RFU C1QL1 (11718748_at) / Fold change /veh C1QL1 (11718748_at) / RFU TMPRSS4 (11747572_a_at) / Fold change /veh TMPRSS4 (11747572_a_at) / RFU HAMP (11756126_x_at) / Fold change /veh HAMP (11756126_x_at) / RFU RNFT2 (11725882_a_at) / Fold change /veh RNFT2 (11725882_a_at) / RFU NR4A2 (11747474_a_at) / Fold change /veh NR4A2 (11747474_a_at) / RFU ABCC12 (11746883_a_at) / Fold change /veh ABCC12 (11746883_a_at) / RFU TMEM136 (11760407_x_at) / Fold change /veh TMEM136 (11760407_x_at) / RFU CLDN22 /// WWC2 (11732394_at) / Fold change /veh CLDN22 /// WWC2 (11732394_at) / RFU HLA-DPB1 (11760878_x_at) / Fold change /veh HLA-DPB1 (11760878_x_at) / RFU SPINT1 (11716480_a_at) / Fold change /veh SPINT1 (11716480_a_at) / RFU GAP43 (11754022_s_at) / Fold change /veh GAP43 (11754022_s_at) / RFU A4GNT (11735810_at) / Fold change /veh A4GNT (11735810_at) / RFU PRB3 (11715151_x_at) / Fold change /veh PRB3 (11715151_x_at) / RFU TUBB4B (11761932_at) / Fold change /veh TUBB4B (11761932_at) / RFU CAPN14 (11732068_a_at) / Fold change /veh CAPN14 (11732068_a_at) / RFU TMCC2 (11721928_a_at) / Fold change /veh TMCC2 (11721928_a_at) / RFU IRGQ (11745062_a_at) / Fold change /veh IRGQ (11745062_a_at) / RFU FAM174B (11720279_a_at) / Fold change /veh FAM174B (11720279_a_at) / RFU TMPRSS4 (11748680_a_at) / Fold change /veh TMPRSS4 (11748680_a_at) / RFU FAM212B (11763350_a_at) / Fold change /veh FAM212B (11763350_a_at) / RFU PLEKHG5 (11743358_a_at) / Fold change /veh PLEKHG5 (11743358_a_at) / RFU ZSCAN30 (11745921_a_at) / Fold change /veh ZSCAN30 (11745921_a_at) / RFU CMKLR1 (11741424_a_at) / Fold change /veh CMKLR1 (11741424_a_at) / RFU LOC101060620 /// MAPK8IP1 (11723275_at) / Fold change /veh LOC101060620 /// MAPK8IP1 (11723275_at) / RFU SPTSSB (11747773_x_at) / Fold change /veh SPTSSB (11747773_x_at) / RFU PRSS12 (11739890_at) / Fold change /veh PRSS12 (11739890_at) / RFU BIN1 (11741810_x_at) / Fold change /veh BIN1 (11741810_x_at) / RFU WNT11 (11732464_a_at) / Fold change /veh WNT11 (11732464_a_at) / RFU C10orf10 (11716521_a_at) / Fold change /veh C10orf10 (11716521_a_at) / RFU C5orf56 (11738089_at) / Fold change /veh C5orf56 (11738089_at) / RFU CYB561 (11721691_x_at) / Fold change /veh CYB561 (11721691_x_at) / RFU ANKRD19P (11752326_a_at) / Fold change /veh ANKRD19P (11752326_a_at) / RFU OR2T12 /// OR2T33 /// OR2T8 (11738714_s_at) / Fold change /veh OR2T12 /// OR2T33 /// OR2T8 (11738714_s_at) / RFU VCAN (11748164_a_at) / Fold change /veh VCAN (11748164_a_at) / RFU JSRP1 (11732532_at) / Fold change /veh JSRP1 (11732532_at) / RFU KRTAP10-11 (11738290_x_at) / Fold change /veh KRTAP10-11 (11738290_x_at) / RFU MYO3A (11730013_a_at) / Fold change /veh MYO3A (11730013_a_at) / RFU EBF3 (11725865_a_at) / Fold change /veh EBF3 (11725865_a_at) / RFU CAMK2N1 (11719241_x_at) / Fold change /veh CAMK2N1 (11719241_x_at) / RFU C5orf56 (11738088_a_at) / Fold change /veh C5orf56 (11738088_a_at) / RFU OLFML3 (11715873_a_at) / Fold change /veh OLFML3 (11715873_a_at) / RFU LOC100653217 /// NTM (11731650_a_at) / Fold change /veh LOC100653217 /// NTM (11731650_a_at) / RFU MAPK11 (11762145_a_at) / Fold change /veh MAPK11 (11762145_a_at) / RFU FIZ1 (11724087_x_at) / Fold change /veh FIZ1 (11724087_x_at) / RFU OASL (11726364_x_at) / Fold change /veh OASL (11726364_x_at) / RFU SOX15 (11748057_x_at) / Fold change /veh SOX15 (11748057_x_at) / RFU CD79A (11719716_a_at) / Fold change /veh CD79A (11719716_a_at) / RFU HIST1H1D (11736915_at) / Fold change /veh HIST1H1D (11736915_at) / RFU CASKIN2 (11723855_a_at) / Fold change /veh CASKIN2 (11723855_a_at) / RFU LOC730098 (11760151_x_at) / Fold change /veh LOC730098 (11760151_x_at) / RFU OR4N2 (11742367_at) / Fold change /veh OR4N2 (11742367_at) / RFU PRRT2 (11749266_a_at) / Fold change /veh PRRT2 (11749266_a_at) / RFU SNX32 (11753110_a_at) / Fold change /veh SNX32 (11753110_a_at) / RFU CDHR5 (11726645_a_at) / Fold change /veh CDHR5 (11726645_a_at) / RFU RCAN1 (11760418_a_at) / Fold change /veh RCAN1 (11760418_a_at) / RFU FAM167A (11723789_a_at) / Fold change /veh FAM167A (11723789_a_at) / RFU FAM26E (11764081_at) / Fold change /veh FAM26E (11764081_at) / RFU ISYNA1 (11749810_s_at) / Fold change /veh ISYNA1 (11749810_s_at) / RFU ACY1 (11761880_at) / Fold change /veh ACY1 (11761880_at) / RFU 11764098_at / Fold change /veh 11764098_at / RFU SAMD14 (11745864_x_at) / Fold change /veh SAMD14 (11745864_x_at) / RFU NPB (11741838_a_at) / Fold change /veh NPB (11741838_a_at) / RFU TMPRSS6 (11731388_a_at) / Fold change /veh TMPRSS6 (11731388_a_at) / RFU KRTAP10-2 (11738614_at) / Fold change /veh KRTAP10-2 (11738614_at) / RFU ARHGAP8 /// PRR5-ARHGAP8 (11727945_x_at) / Fold change /veh ARHGAP8 /// PRR5-ARHGAP8 (11727945_x_at) / RFU KRTAP5-7 /// NADSYN1 (11734609_at) / Fold change /veh KRTAP5-7 /// NADSYN1 (11734609_at) / RFU RASL12 (11751679_a_at) / Fold change /veh RASL12 (11751679_a_at) / RFU CDKN2B (11736163_a_at) / Fold change /veh CDKN2B (11736163_a_at) / RFU PRF1 (11729649_at) / Fold change /veh PRF1 (11729649_at) / RFU, ZNF638 /// ZNF638-IT1 / Fold change vs veh, ZNF638 /// ZNF638-IT1 / RFU, PANK3 / Fold change vs veh, PANK3 / RFU, SH3YL1 / Fold change vs veh, SH3YL1 / RFU, ZEB2 / Fold change vs veh, ZEB2 / RFU, NRIP1 / Fold change vs veh, NRIP1 / RFU, PTTG1IP / Fold change vs veh, PTTG1IP / RFU, CAPN2 / Fold change vs veh, CAPN2 / RFU, MED14 / Fold change vs veh, MED14 / RFU, SNORA58 / Fold change vs veh, SNORA58 / RFU, C1orf63 / Fold change vs veh, C1orf63 / RFU, LRRFIP1 / Fold change vs veh, LRRFIP1 / RFU, NDUFAF7 / Fold change vs veh, NDUFAF7 / RFU, SLC12A2 / Fold change vs veh, SLC12A2 / RFU, IBTK / Fold change vs veh, IBTK / RFU, ESF1 / Fold change vs veh, ESF1 / Fold change vs veh, TMEM50B / RFU, TAOK1 / Fold change vs veh, TAOK1 / RFU, ACBD3 / Fold change vs veh, ACBD3 / RFU, TMA16 / Fold change vs veh, TMA16 / RFU, RWDD3 / Fold change vs veh, RWDD3 / RFU, BCAT1 / Fold change vs veh, BCAT1 / RFU, EDEM3 / Fold change vs veh, EDEM3 / RFU, TMEM33 / Fold change vs veh, TMEM33 / RFU, WDR75 / Fold change vs veh, WDR75 / RFU, AHCTF1 / Fold change vs veh, AHCTF1 / RFU, TFRC / Fold change vs veh, TFRC / RFU, ZDHHC17 / Fold change vs veh, ZDHHC17 / RFU, NOM1 / Fold change vs veh, NOM1 / RFU, ARL8B / Fold change vs veh, ARL8B / RFU, ZBTB11 / Fold change vs veh, ZBTB11 / RFU, TAMM41 / Fold change vs veh, TAMM41 / RFU, KIAA1704 /// LOC100996395 / Fold change vs veh, KIAA1704 /// LOC100996395 / RFU, ING1 / Fold change vs veh, ING1 / RFU, TRMT61B / Fold change vs veh, TRMT61B / RFU, FUBP3 / Fold change vs veh, FUBP3 / RFU, TP53 / Fold change vs veh, TP53 / RFU, TNKS2 / Fold change vs veh, TNKS2 / RFU, ZFP14 / Fold change vs veh, ZFP14 / RFU, ACTR2 / Fold change vs veh, ACTR2 / RFU, PPP3R1 / Fold change vs veh, PPP3R1 / RFU, PIK3R1 / Fold change vs veh, PIK3R1 / RFU, HNRNPA1 / Fold change vs veh, HNRNPA1 / RFU, RNF170 / Fold change vs veh, RNF170 / RFU, ZNF28 / Fold change vs veh, ZNF28 / RFU, RNGTT / Fold change vs veh, RNGTT / RFU, OGT / Fold change vs veh, OGT / RFU, BRD1 / Fold change vs veh, BRD1 / RFU, MARS / Fold change vs veh, MARS / RFU, ZNF655 / Fold change vs veh, ZNF655 / RFU, FAHD1 / Fold change vs veh, FAHD1 / RFU, BDP1 / Fold change vs veh, BDP1 / RFU, LRRCC1 / Fold change vs veh, LRRCC1 / RFU, ARID1A / Fold change vs veh, ARID1A / RFU, ZNF146 / Fold change vs veh, ZNF146 / RFU, ZNF330 / Fold change vs veh, ZNF330 / RFU, GPN3 / Fold change vs veh, GPN3 / RFU, C9orf123 / Fold change vs veh, C9orf123 / RFU, N4BP2L2 / Fold change vs veh, N4BP2L2 / RFU, ARFIP1 / Fold change vs veh, ARFIP1 / RFU, FAM179B / Fold change vs veh, FAM179B / RFU, BCL10 / Fold change vs veh, BCL10 / RFU, UHRF1BP1L / Fold change vs veh, UHRF1BP1L / RFU, BET1 / Fold change vs veh, BET1 / RFU, CNOT2 / Fold change vs veh, CNOT2 / RFU, ZNF268 / Fold change vs veh, ZNF268 / Fold change vs veh, ZNF507 / RFU, DGCR2 / Fold change vs veh, DGCR2 / RFU, WDSUB1 / Fold change vs veh, WDSUB1 / Fold change vs veh, HSP90B1 /// MIR3652 / RFU, ADSS / Fold change vs veh, ADSS / RFU, GK / Fold change vs veh, GK / RFU, ZNF148 / Fold change vs veh, ZNF148 / RFU, TAF9 / Fold change vs veh, TAF9 / RFU, SLC1A5 / Fold change vs veh, SLC1A5 / RFU, SLMO2 / Fold change vs veh, SLMO2 / RFU, ABCC4 / Fold change vs veh, ABCC4 / RFU, LOC101060439 /// RAP1B / Fold change vs veh, LOC101060439 /// RAP1B / RFU, RFX7 / Fold change vs veh, RFX7 / RFU, GTPBP10 / Fold change vs veh, GTPBP10 / RFU, CNEP1R1 / Fold change vs veh, CNEP1R1 / RFU, BIVM-ERCC5 /// ERCC5 / Fold change vs veh, BIVM-ERCC5 /// ERCC5 / RFU, ILF3 / Fold change vs veh, ILF3 / RFU 11762660_at / Fold change /veh 11762660_at / RFU VCAN (11757783_s_at) / Fold change /veh VCAN (11757783_s_at) / RFU DDX43 (11728927_at) / Fold change /veh DDX43 (11728927_at) / RFU KRT8 (11758188_x_at) / Fold change /veh KRT8 (11758188_x_at) / RFU NKD1 (11759106_at) / Fold change /veh NKD1 (11759106_at) / RFU SRD5A1 (11742802_a_at) / Fold change /veh SRD5A1 (11742802_a_at) / RFU TPSAB1 /// TPSB2 (11721975_s_at) / Fold change /veh TPSAB1 /// TPSB2 (11721975_s_at) / RFU GSTM3 (11746129_a_at) / Fold change /veh GSTM3 (11746129_a_at) / RFU IL23R (11737362_x_at) / Fold change /veh IL23R (11737362_x_at) / RFU TMEM51 (11727254_a_at) / Fold change /veh TMEM51 (11727254_a_at) / RFU PIWIL2 (11732686_x_at) / Fold change /veh PIWIL2 (11732686_x_at) / RFU ORM1 (11744905_x_at) / Fold change /veh ORM1 (11744905_x_at) / RFU CCDC152 (11743942_at) / Fold change /veh CCDC152 (11743942_at) / RFU ECM1 (11717891_a_at) / Fold change /veh ECM1 (11717891_a_at) / RFU IL23R (11748794_a_at) / Fold change /veh IL23R (11748794_a_at) / RFU TNFAIP8L3 (11732012_x_at) / Fold change /veh TNFAIP8L3 (11732012_x_at) / RFU MBOAT4 (11741988_at) / Fold change /veh MBOAT4 (11741988_at) / RFU 11764193_at / Fold change /veh 11764193_at / RFU TMEM53 (11763286_at) / Fold change /veh TMEM53 (11763286_at) / RFU MAGEB2 (11727129_at) / Fold change /veh MAGEB2 (11727129_at) / RFU TMEM200A (11744735_a_at) / Fold change /veh TMEM200A (11744735_a_at) / RFU CCDC152 (11751479_a_at) / Fold change /veh CCDC152 (11751479_a_at) / RFU FAM211A (11726209_a_at) / Fold change /veh FAM211A (11726209_a_at) / RFU RGS16 (11746705_a_at) / Fold change /veh RGS16 (11746705_a_at) / RFU VCAN (11755009_s_at) / Fold change /veh VCAN (11755009_s_at) / RFU RHOB (11743442_s_at) / Fold change /veh RHOB (11743442_s_at) / RFU RGS16 (11720943_a_at) / Fold change /veh RGS16 (11720943_a_at) / RFU RGS16 (11720944_at) / Fold change /veh RGS16 (11720944_at) / RFU, VPS4B / Fold change vs veh, VPS4B / RFU, CREB1 / Fold change vs veh, CREB1 / RFU, DNAJC13 / Fold change vs veh, DNAJC13 / RFU, GNAQ / Fold change vs veh, GNAQ / RFU, CDK5R1 / Fold change vs veh, CDK5R1 / RFU, ZRANB3 / Fold change vs veh, ZRANB3 / RFU, CUL4A / Fold change vs veh, CUL4A / RFU, CCNY / Fold change vs veh, CCNY / RFU, UFL1 / Fold change vs veh, UFL1 / RFU, COG3 / Fold change vs veh, COG3 / RFU, DIAPH2 / Fold change vs veh, DIAPH2 / RFU, SKA2 / Fold change vs veh, SKA2 / RFU, AFF3 / Fold change vs veh, AFF3 / RFU, LMF1 / Fold change vs veh, LMF1 / RFU, IPO11 / Fold change vs veh, IPO11 / RFU, DFFB / Fold change vs veh, DFFB / RFU, FOXP1 / Fold change vs veh, FOXP1 / RFU, CARD8 / Fold change vs veh, CARD8 / RFU, STRN3 / Fold change vs veh, STRN3 / RFU, ADK / Fold change vs veh, ADK / RFU, RASSF2 / Fold change vs veh, RASSF2 / RFU, WIPF1 / Fold change vs veh, WIPF1 / RFU, LARP1B / Fold change vs veh, LARP1B / RFU, RASA1 / Fold change vs veh, RASA1 / RFU, RB1 / Fold change vs veh, RB1 / RFU, PPFIA1 / Fold change vs veh, PPFIA1 / RFU, MAT2A / Fold change vs veh, MAT2A / RFU, CCT5 / Fold change vs veh, CCT5 / RFU, WDR92 / Fold change vs veh, WDR92 / RFU, CUX1 / Fold change vs veh, CUX1 / RFU, TTC7A / Fold change vs veh, TTC7A / RFU, TMEM135 / Fold change vs veh, TMEM135 / RFU, DEPTOR / Fold change vs veh, DEPTOR / RFU, CPM / Fold change vs veh, CPM / RFU, DNAJB6 / Fold change vs veh, DNAJB6 / RFU, CACNA2D3 / Fold change vs veh, CACNA2D3 / RFU, DTX4 / Fold change vs veh, DTX4 / RFU, TFCP2 / Fold change vs veh, TFCP2 / RFU, GMCL1 /// GMCL1P1 / Fold change vs veh, GMCL1 /// GMCL1P1 / RFU, AEBP2 / Fold change vs veh, AEBP2 / RFU, SNHG1 /// SNORD22 /// SNORD25 /// SNORD26 /// SNORD27 /// SNORD28 /// SNORD29 /// SNORD31 / Fold change vs veh, SNHG1 /// SNORD22 /// SNORD25 /// SNORD26 /// SNORD27 /// SNORD28 /// SNORD29 /// SNORD31 / Fold change (Aza/veh), C12orf56 (ProbeSet 11735607_a_at) / Fold change (ACY-1035/veh), C12orf56 (ProbeSet 11735607_a_at) / Fold change (Aza/veh), FGFR1OP (ProbeSet 11751329_s_at) / Fold change (ACY-1035/veh), FGFR1OP (ProbeSet 11751329_s_at) / Fold change (Aza/veh), VPS36 (ProbeSet 11739960_a_at) / Fold change (ACY-1035/veh), VPS36 (ProbeSet 11739960_a_at) / RFU SYPL1 (11715823_x_at) / Fold change /veh SYPL1 (11715823_x_at) / RFU IGFBP7 (11715501_s_at) / Fold change /veh IGFBP7 (11715501_s_at) / RFU REEP3 (11722064_at) / Fold change /veh REEP3 (11722064_at) / RFU IGLL1 (11728026_x_at) / Fold change /veh IGLL1 (11728026_x_at): dose or concentration left out as unconfirmed. The format is cell-based, human. The note with it: ProbeSet 11717523_x_at; LIST B.

Turning to `Nc1ccc(-c2cccs2)cc1NC(=O)c1ccc2c(c1)cc(C1CC1)n2CCN1CCOCC1` [ACY-1035], the “Fold change vs veh, TMEM50B” value turned out to be 0.88.
